{
  "source": "ChEMBL document CHEMBL1201862",
  "about": "“PubChem BioAssay data set” (2004)",
  "type_in_all_cases": "functional",
  "key": {"[1]": {"test": "Vero cell cytotoxicity, dose response, cytotoxicity control for M. tuberculosis growth inhibitor project, Vero cells, purified and synthesized compounds, set 4 (AID 504854)", "details": "Mycobacterium tuberculosis"}, "[2]": {"test": "THP-1 cell cytotoxicity, cytotoxicity control, set 4 (AID 504911)", "details": "Mycobacterium tuberculosis"}, "[3]": {"target": "Dual specificity protein kinase CLK4 (Homo sapiens, UniProt Q9HAZ1)", "sequence (Q9HAZ1 whole entry)": "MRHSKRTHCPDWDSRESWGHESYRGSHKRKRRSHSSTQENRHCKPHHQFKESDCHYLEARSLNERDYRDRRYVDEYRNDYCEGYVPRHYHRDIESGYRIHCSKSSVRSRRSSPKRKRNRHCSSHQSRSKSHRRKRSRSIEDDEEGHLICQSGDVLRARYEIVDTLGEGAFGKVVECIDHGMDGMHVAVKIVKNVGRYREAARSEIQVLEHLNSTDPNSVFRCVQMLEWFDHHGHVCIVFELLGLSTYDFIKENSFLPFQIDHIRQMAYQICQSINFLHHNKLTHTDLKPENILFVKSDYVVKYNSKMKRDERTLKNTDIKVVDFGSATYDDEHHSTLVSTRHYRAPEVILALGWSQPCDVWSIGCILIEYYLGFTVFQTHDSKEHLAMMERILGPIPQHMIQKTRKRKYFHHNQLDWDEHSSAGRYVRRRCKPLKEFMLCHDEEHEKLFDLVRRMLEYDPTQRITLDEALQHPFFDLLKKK"}, "[4]": {"target": "Dual specificity protein kinase CLK2 (Homo sapiens, UniProt P49760)", "sequence (P49760 whole entry)": "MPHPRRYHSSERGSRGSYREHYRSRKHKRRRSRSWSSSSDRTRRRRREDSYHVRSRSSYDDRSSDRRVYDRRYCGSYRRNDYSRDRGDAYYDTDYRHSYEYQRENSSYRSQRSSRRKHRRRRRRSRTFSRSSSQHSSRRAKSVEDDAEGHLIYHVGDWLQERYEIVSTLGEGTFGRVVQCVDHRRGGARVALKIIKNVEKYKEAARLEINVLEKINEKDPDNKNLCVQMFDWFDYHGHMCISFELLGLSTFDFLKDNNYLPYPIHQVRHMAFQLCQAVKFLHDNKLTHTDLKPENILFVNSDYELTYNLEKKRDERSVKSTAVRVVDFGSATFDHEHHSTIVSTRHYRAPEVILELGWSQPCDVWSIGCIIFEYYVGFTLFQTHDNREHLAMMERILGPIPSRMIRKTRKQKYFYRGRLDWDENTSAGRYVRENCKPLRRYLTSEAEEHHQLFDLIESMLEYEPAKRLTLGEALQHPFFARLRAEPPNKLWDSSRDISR"}, "[5]": {"target": "Serine/threonine-protein kinase pim-1 (Homo sapiens, UniProt P11309)", "sequence (P11309 whole entry)": "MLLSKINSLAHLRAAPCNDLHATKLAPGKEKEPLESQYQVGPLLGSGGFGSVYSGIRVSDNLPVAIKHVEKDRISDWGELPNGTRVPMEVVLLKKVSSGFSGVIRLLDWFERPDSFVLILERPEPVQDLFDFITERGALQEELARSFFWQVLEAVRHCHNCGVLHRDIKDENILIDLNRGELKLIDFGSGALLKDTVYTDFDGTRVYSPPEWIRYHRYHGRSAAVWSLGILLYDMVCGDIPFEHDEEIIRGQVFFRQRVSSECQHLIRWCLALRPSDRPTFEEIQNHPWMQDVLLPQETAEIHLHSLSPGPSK"}, "[6]": {"target": "Melanin-concentrating hormone receptor 1 (Homo sapiens, UniProt Q99705)", "sequence (Q99705 whole entry)": "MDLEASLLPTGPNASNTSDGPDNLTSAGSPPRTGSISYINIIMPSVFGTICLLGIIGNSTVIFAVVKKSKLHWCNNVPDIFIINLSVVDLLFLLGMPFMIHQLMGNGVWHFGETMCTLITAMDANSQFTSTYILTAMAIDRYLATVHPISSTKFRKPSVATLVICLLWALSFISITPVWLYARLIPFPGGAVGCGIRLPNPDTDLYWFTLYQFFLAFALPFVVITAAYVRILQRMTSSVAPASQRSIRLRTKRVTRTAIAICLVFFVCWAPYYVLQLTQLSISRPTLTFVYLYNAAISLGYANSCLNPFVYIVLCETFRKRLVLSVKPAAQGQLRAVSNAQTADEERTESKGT", "test": "Late-stage fluorescence-based counterscreen for antagonists of the G-protein coupled receptor 7 (GPR7): cell-based dose response assay to identify antagonists of the melanin-concentrating hormone receptor 1 (MCHR1) Set 5."}, "[7]": {"target": "ALK tyrosine kinase receptor (Homo sapiens, UniProt Q9UM73)"}, "[8]": {"target": "Cyclin-dependent kinase 19 (Homo sapiens, UniProt Q9BWU1)", "sequence (Q9BWU1 whole entry)": "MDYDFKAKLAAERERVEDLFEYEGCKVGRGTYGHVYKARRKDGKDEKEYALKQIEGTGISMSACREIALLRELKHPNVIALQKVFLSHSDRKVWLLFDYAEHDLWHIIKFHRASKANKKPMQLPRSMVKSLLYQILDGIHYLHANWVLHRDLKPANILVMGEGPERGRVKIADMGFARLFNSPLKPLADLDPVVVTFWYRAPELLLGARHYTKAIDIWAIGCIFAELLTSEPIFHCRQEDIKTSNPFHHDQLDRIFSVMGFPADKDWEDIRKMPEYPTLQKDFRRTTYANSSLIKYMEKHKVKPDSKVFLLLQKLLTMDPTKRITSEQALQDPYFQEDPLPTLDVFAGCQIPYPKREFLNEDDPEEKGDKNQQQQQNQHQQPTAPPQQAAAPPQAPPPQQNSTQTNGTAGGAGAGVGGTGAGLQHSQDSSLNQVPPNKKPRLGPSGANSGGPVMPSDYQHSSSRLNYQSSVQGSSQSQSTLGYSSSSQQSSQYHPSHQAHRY", "test": "Navigating the Kinome. Panel member name: CDC2L6"}, "[9]": {"target": "Activin receptor type-1 (Homo sapiens, UniProt Q04771)", "test": "Navigating the Kinome. Panel member name: ACVR1"}, "[10]": {"target": "Receptor-type tyrosine-protein kinase FLT3 (Homo sapiens, UniProt P36888)", "sequence (P36888 whole entry)": "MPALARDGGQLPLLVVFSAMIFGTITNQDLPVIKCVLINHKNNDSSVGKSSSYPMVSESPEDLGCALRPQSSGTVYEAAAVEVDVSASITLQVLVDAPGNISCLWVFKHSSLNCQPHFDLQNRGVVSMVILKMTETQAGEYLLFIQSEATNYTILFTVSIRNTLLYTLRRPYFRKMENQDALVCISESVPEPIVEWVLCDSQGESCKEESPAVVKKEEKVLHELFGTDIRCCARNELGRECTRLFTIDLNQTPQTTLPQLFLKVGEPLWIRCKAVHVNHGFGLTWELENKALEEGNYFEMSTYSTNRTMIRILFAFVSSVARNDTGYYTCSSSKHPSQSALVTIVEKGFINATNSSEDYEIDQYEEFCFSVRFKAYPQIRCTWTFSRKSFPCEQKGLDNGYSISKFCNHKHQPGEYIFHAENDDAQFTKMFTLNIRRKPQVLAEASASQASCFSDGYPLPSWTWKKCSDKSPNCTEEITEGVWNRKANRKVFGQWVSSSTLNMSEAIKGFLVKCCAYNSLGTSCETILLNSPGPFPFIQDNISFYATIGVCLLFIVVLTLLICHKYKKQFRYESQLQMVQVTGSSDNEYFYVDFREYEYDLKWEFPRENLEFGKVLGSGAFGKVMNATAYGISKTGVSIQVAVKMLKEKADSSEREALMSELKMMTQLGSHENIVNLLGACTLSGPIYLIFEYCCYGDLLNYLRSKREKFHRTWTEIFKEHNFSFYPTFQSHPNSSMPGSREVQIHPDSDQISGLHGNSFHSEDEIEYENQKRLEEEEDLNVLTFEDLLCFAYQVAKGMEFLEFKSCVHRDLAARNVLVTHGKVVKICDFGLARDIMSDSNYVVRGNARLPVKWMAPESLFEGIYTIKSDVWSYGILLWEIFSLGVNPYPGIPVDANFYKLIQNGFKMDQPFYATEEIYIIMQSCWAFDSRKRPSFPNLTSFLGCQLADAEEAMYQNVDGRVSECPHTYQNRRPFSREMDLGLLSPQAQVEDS"}, "[11]": {"target": "T1, Glycogen synthase kinase-3 beta (Homo sapiens, UniProt P49841)", "T1 sequence (P49841 whole entry)": "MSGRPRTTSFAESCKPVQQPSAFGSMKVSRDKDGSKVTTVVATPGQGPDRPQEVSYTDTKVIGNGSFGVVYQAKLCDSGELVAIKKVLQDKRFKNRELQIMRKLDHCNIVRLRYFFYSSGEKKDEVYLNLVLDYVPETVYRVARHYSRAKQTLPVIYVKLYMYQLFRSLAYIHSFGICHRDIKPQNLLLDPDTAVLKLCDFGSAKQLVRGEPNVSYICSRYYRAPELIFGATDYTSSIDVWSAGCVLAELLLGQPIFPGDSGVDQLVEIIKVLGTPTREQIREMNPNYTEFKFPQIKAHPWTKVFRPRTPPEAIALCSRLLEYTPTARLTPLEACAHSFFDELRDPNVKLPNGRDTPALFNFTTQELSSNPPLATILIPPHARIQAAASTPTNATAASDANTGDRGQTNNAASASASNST"}, "[12]": {"target": "Glycogen synthase kinase-3 alpha (Homo sapiens, UniProt P49840)", "sequence (P49840 whole entry)": "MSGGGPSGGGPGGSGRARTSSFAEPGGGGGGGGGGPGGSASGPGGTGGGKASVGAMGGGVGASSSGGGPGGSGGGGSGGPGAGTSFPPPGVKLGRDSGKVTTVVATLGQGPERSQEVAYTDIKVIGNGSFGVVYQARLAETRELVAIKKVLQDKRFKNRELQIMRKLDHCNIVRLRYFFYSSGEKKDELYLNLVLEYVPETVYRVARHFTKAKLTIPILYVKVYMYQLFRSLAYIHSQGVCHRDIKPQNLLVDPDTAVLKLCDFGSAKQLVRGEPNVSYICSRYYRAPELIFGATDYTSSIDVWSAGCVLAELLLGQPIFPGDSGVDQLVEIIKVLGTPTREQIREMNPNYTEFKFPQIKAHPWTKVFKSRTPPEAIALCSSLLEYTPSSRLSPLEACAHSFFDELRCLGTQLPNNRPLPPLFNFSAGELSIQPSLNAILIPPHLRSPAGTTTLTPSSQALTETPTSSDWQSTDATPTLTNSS"}, "[13]": {"target": "Aurora kinase B (Homo sapiens, UniProt Q96GD4)", "sequence (Q96GD4 whole entry)": "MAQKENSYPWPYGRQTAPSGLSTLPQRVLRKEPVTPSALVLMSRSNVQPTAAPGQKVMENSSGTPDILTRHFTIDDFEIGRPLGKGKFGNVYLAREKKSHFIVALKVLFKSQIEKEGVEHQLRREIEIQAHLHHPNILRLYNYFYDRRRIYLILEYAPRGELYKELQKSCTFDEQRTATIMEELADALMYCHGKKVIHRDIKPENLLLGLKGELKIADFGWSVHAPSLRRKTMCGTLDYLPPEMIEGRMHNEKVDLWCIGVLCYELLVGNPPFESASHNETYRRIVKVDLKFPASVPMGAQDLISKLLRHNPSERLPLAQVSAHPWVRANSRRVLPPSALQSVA"}, "[14]": {"target": "Aurora kinase A (Homo sapiens, UniProt O14965)", "sequence (O14965 whole entry)": "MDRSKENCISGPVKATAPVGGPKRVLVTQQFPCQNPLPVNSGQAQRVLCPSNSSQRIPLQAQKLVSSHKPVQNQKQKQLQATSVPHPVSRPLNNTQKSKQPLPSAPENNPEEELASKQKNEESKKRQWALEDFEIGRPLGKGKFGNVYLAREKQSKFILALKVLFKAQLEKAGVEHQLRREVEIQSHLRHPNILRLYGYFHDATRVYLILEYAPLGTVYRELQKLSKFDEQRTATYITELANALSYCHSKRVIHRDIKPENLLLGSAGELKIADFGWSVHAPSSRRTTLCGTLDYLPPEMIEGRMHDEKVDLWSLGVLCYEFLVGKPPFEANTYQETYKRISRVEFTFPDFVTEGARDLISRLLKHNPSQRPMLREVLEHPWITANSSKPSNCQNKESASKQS"}, "[15]": {"target": "Vascular endothelial growth factor receptor 2 (Homo sapiens, UniProt P35968)"}, "[16]": {"target": "Cyclin-dependent kinase 5/CDK5 activator 1 (Homo sapiens, UniProt Q00535)", "test": "inhibitors of human CDK5 activity – biochemical, microfluidic mobility shift, dry powder, set 2, selectivity assay for GSK3beta inhibitor project, dose response (AID 623979)"}, "[17]": {"target": "T1, Glycogen synthase kinase-3 beta", "test": "inhibition of human GSK3B activity – biochemical, microfluidics, dry powder samples, set 2, dose response (AID 623989)"}},
  "note": "Calls of active or inactive are those of the source.",
  "data": [
    {"compound": "CC(C)NC(=O)CSc1nc2ccccc2c(=O)[nH]1", "values": [
      {"measurement": "CC50", "setting": "[1]", "result": "> 100 µM (active)"},
      {"measurement": "CC50", "setting": "[2]", "result": "> 100 µM (active)"}
    ]},
    {"compound": "COCCn1c(C)c(C)sc1=NC(=O)c1cc(SC)ccc1Cl", "values": [
      {"measurement": "Ki", "setting": "[3]", "result": "5.01 µM (active)"},
      {"measurement": "Ki", "setting": "[4]", "result": "6.31 µM (active)"},
      {"measurement": "Ki", "setting": "[5]", "result": "6.31 µM (active)"}
    ]},
    {"compound": "COc1ccc(Oc2c(Cl)cnn(C3=Nc4cc(Cl)ccc4Oc4ncccc43)c2=O)cc1", "values": [
      {"measurement": "IC50", "setting": "[6]", "result": "8.51 µM (active)"}
    ]},
    {"compound": "Cn1cc(Nc2ncc(Br)c(Nc3cccc(C(N)=O)c3)n2)cn1", "values": [
      {"measurement": "Ki", "setting": "[7]", "result": "3.16 µM (active)"},
      {"measurement": "Ki", "setting": "[8]", "result": "6.31 µM (active)"}
    ]},
    {"compound": "CCc1cnn2c(NCc3ccc[n+]([O-])c3)cc(N3CCCCC3CCO)nc12", "note": "(configuration not stated)", "values": [
      {"measurement": "Ki", "setting": "[9]", "result": "> 3.98 µM (inactive)"},
      {"measurement": "Ki", "setting": "[10]", "result": "> 3.16 µM (inactive)"},
      {"measurement": "Ki", "setting": "[11]", "result": "1.26 µM (active)"},
      {"measurement": "Ki", "setting": "[12]", "result": "1.58 µM (active)"}
    ]},
    {"compound": "O=C1NC(=S)NC(=O)C1=Cc1ccc(-c2ccc(C(=O)O)c(O)c2)o1", "values": [
      {"measurement": "Ki", "setting": "[13]", "result": "0.0398 µM (active)"},
      {"measurement": "Ki", "setting": "[14]", "result": "0.126 µM (active)"},
      {"measurement": "Ki", "setting": "[15]", "result": "> 5.01 µM (inactive)"}
    ]},
    {"compound": "O=C(Cc1cccc2ccccc12)Nc1cn(C2CCC2)cn1", "values": [
      {"measurement": "AC50", "setting": "[16]", "result": "0.137 µM (active)"},
      {"measurement": "AC50", "setting": "[17]", "result": "8.41 µM (active)"}
    ]}
  ]
}
